Assay results: patent publication US4839358A, “Alpha-mercaptomethyl-benzene propanamides, pharmaceutical compositions and use” (Roussel Uclaf, priority 1987, dated 1989)

Assays:
[1] = target: T1, Enkephalinase (Rattus norvegicus, UniProt P07861); test: Determination of the Inhibiting Effect of Enkephalinase (hydrolysis of succinyl-Ala-Ala-Phe-amino-methylcoumarine, fluorescence); assay type: biochemical; details: rat renal membrane; substrate 40 μM; pH 7.5; 37° C., 30 minutes; read-out: IC50 (concentration which inhibits the hydrolysis of the substrate by 50%)
T1 construct: from tissue; host or cells: rat kidney membranes (15,000 g particulate fraction, solubilised with octyl beta-D-glucopyranoside, 100,000 g supernatant)
T1 sequence (P07861 1-750): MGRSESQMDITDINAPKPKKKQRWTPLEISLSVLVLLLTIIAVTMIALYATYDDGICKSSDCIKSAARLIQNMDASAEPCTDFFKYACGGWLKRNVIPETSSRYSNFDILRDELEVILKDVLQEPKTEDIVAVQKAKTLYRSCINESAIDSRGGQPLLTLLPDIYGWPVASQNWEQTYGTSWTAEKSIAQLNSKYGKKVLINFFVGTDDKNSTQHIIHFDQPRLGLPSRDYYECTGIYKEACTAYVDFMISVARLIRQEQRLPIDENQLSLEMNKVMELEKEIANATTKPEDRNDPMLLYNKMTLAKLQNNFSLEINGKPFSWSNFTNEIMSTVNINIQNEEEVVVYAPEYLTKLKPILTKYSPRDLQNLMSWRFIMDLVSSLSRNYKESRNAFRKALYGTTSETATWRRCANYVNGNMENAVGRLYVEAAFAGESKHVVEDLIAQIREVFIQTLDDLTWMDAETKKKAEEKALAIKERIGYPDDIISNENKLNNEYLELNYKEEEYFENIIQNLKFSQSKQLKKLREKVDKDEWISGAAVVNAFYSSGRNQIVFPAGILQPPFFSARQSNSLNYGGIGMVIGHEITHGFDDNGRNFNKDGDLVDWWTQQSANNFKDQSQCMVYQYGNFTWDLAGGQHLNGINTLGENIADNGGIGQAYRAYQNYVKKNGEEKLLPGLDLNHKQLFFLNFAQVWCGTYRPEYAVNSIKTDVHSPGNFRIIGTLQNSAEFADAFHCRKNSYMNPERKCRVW
Experimental: The activity of enkephalinase was determined starting with a piece of renal membrane of a rat. The kidneys were removed on ice and homogenized in HEPES 0.05M buffer pH 7.5 containing magnesium chloride (50 times the volume). After a first centrifuging at 1,500 g, the particular fraction was obtained after centrifuging at 15,000 g for 20 minutes. The residue was then washed and suspended in HEPES buffer and kept at -20 C. A part of this membrane preparation was placed in the presence of octyl β-D-glucopyranoside (50 mM in final centrifuging) for 15 minutes 15 4° C. After centrifuging at 100,000 g for one hour, the supernatant was removed and frozen by aliquots at -20° C. The concentration in proteins was determined by the method with Comassie blue.
An aliquot of the protein fraction so prepared was pre-incubated at 25° C. for 10 minutes in HEPES 0.05M buffer pH 7.5 or in the presence of the test product. The substrate added was a non-natural enkephaline of the formula succinyl-Ala-Ala-Phe-amino-methylcoumarine (reference 1) (40 μM in final concentration): the incubation was continued at 37° C. for 30 minutes. The reaction was stopped by heating to 95° C. for 5 minutes and each incubate was centrifuged. A solution of aminopeptidase M (4 μM in final concentration) and of thiorphan (reference 2) (10^-5 M) was added to the supernatant and the mixture was taken to 37° C. for one hour. The reaction was stopped as previously described and the fluorescence of the 7-aminomethylcoumarineso produced was determined. The effect of the products under test was detemined by calculating the IC50 as the concentration which inhibits the hydrolysis of the substrate by 50%.

[2] = Analgesic activity: Stretching Caused by Acetic Acid in Mice; assay type: in vivo; details: Mus musculus, 0.5 h; oral, half-an-hour before 1% acetic acid 10 ml/kg intraperitoneal; 15 minutes observation; read-out: AD50 (active dose which enabled a reduction of 50% of the number of stretchings as compared with control animals)
Experimental: The test used was based on the fact reported by R. KOSTER et al [Fed. Proc. (1959), Vol. 18, p. 412] in which the intraperitoneal injection of acetic acid caused in mice repeated stretching and twisting movements which can persist for more than 6 hours. The analgesics prevent or diminish this syndrome which can be considered as the exteriorization of a diffuse abdominal pain. A 1% solution of acetic acid in water was used, administered at a rate of 10 ml/kg. The product studied was administered by oral route half-an-hour before injection of the acetic acid, the mice being without food for a minimum 6 hours. The stretchings were observed and counted for each mouse for an observation period of 15 minutes. The results were expressed as the AD50, that is to say, the active dose which enabled a reduction of 50% of the number of stretchings as compared with control animals. The AD50 found for the compound of Example 2 was 80 mg/kg.

[3] = Test of Anti-depressive Activity (duration of immobility, forced swimming); assay type: in vivo, Sprague Dawley rats; details: 20 mg/kg × 3, oral 24, 5 and 1 hour before test
Experimental: The tests were carried out on groups of 5 Sprague Dawley rats and the inexperienced animals were placed for 15 minutes in a vertical perspex cylinder (diameter: 18 cm, height: 40 cm) containing water at 25° C. to a height of 15 cm (initial swimming test). They were then dried for 15 minutes in an enclosure heated to 32° C. 24 hours later, they were replaced in the cylinder filled with water and the total duration of immobility was measured for 5 minutes. The compound was administered orally successively 24, 5 and 1 hour before the test. The first administration took place immediately after the initial swimming test, just before replacing the animals in their breeding box. The average of the groups treated were compared with those of the control group by the Dunnett test.

Row | SMILES | IC50 [1] [nM] | ED50 [2] [mg/kg] | Duration of immobility ([3]; 5 minutes measured, control 232 ± 7) [s] | Duration of immobility, % variation ([3]; versus control group) [%]
1 | O=C(NN1CCCCCC1)C(CS)Cc1ccccc1 (stereo not drawn) [Example 8, N-(hexahydro-1H-azepinyl)-α-(mercaptomethyl)-benzene propanamide] | 390 | – | – | –
2 | O=C(NN1CCOCC1)C(CS)Cc1ccccc1 (stereo not drawn) [Example 2, α-mercaptomethyl-N-(4-morpholinyl)-benzene propanamide] | 220 | 80 | 138 ± 20 | -41
3 | O=C(NN1CCCC1)C(CS)Cc1ccccc1 (stereo not drawn) [Example 10, α-mercaptomethyl-N-(1-pyrrolidinyl)-benzene propanamide] | 71 | – | – | –
4 | O=C(NN1CCSCC1)C(CS)Cc1ccccc1 (stereo not drawn) [Example 12, α-mercaptomethyl-N-(tetrahydro-2H-1,4,-thiazin-4-yl)-benzene propanamide] | 350 | – | – | –
